This note sets out measurements from patent US20250092065A1, “2-(INDAZOL-5-YL)-6-(PIPERIDIN-4-YL)-1,7-NAPHTHYRIDINE DERIVATIVES AND RELATED COMPOUNDS AS MODULATORS FOR SPLICING NUCLEIC ACIDS AND FOR THE TREATMENT OF PROLIFERATIVE DISEASES” (REMIX THERAPEUTICS INC., priority 2022, published 2025).

For orientation: AC50 means the midpoint of the concentration-response curve, whichever way the signal moves. For orientation: IC50 means the concentration that gives 50% inhibition.

The structures appear in SMILES notation. Where two headings read alike, the source gives them in different places.

For series [1], the system named is HTT mRNA. The series can be described thus: RT-qPCR splicing assay, HTT mRNA canonical (CJ) and alternative (AJ) junction. The note with it: Homo sapiens; for AC50: HTT alternative junction mRNA, read-out: HTT AJ (increase in AJ mRNA, AC50). In kind it is cell-based, human. In a few lines:
(§1)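 A673 or K562 cells treated 24 h at 37 °C with 11-point 3-fold dilutions (top final 10 uM, DMSO ≤0.25%). Lysates analysed by one-step RT-qPCR for canonical (CJ) and alternative-exon (AJ) junctions, normalized to GAPDH, GUSB or PPIA. ΔΔCt vs DMSO, RQ = 2^(−ΔΔCt), expressed as percentage response.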
For orientation: In qPCR the cycle at which signal appears reflects the starting amount.

Series [2] relates to MYB mRNA. Description: RT-qPCR splicing assay, MYB mRNA canonical (CJ) and alternative (AJ) junction. The note with it: Homo sapiens; for AC50: MYB alternative junction mRNA, read-out: MYB AJ (increase in AJ mRNA, AC50). In kind it is cell-based, human. The method, boiled down:
as §1

The test system of series [3] is SMN2 mRNA. The series can be described thus: RT-qPCR splicing assay, SMN2 mRNA. In kind it is cell-based, human. The following applies: Homo sapiens, canonical junction qPCR panel, Table 4; read-out: SMN2 IC50 (decrease in CJ mRNA levels). The method, boiled down:
as §1

For series [4], the system named is MYB. The series can be described thus: HiBiT protein abundance assay, MYB (K562 HiBiT knock-in). The following applies: HiBiT knock-in K562 cells, 24 hours, top dose 10 μM. In kind it is cell-based, human. The method, boiled down:
(§2)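 Luminescence readout: Nano-Glo HiBiT lytic detection after 24 h compound exposure of K562 HiBiT knock-in cells, 10000 cells/well. Dosing 10-pt, 3-fold, top 10 μM final. % response vs untreated parental K562 and DMSO controls; 4PL fit, IC50 = concentration giving 50% protein abundance.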
On the technique in general: With HiBiT, luminescence reflects the tagged protein that the partner subunit can reach.

Series [5] concerns HTT. Description: HiBiT protein abundance assay, HTT (K562 HiBiT knock-in). In kind it is cell-based, human. The note with it: HiBiT knock-in K562 cells, 24 hours, top dose 10 μM. In a few lines: as §2
Series [6] has as its system Target C. The series can be described thus: HiBiT protein abundance assay, Target C (K562 HiBiT knock-in). In kind it is cell-based, human. The following applies: HiBiT knock-in K562 cells, 24 hours, top dose 10 μM. In a few lines:
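K562 HiBiT knock-in cells (10000/well) were treated 24 h at 37° C with a 10-point 3-fold dilution series (top 10 μM final, ≤0.25% DMSO). HiBiT luminescence was read after lytic LgBiT detection. Percent response used unmodified K562 and DMSO-treated knock-in controls, and IC50 came from a four-parameter fit at 50% of untreated.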

Series [7] relates to K562 cells. Description: Cell Titer Glo 2.0 cell viability (toxicity) assay, K562. The following applies: 500 cells/well, 72 hours. For orientation: Cellular ATP, detected with luciferase, serves as a proxy for viable cell number.
The mark [8] stands for this setting: HTT canonical junction mRNA, RT-qPCR, read-out: HTT CJ (decrease in CJ mRNA levels, IC50).
Setting [9] is: canonical junction qPCR panel, Table 4, read-out: HTT IC50 (decrease in CJ mRNA levels).
Setting [10] is: MYB canonical junction mRNA, RT-qPCR, read-out: MYB CJ (decrease in CJ mRNA levels, IC50).
Setting [11] is: canonical junction qPCR panel, Table 4, read-out: MYB IC50 (decrease in CJ mRNA levels).

`CC(C)(C)NC1CCN(c2ccc3nc(-c4cc5cnccc5cc4O)ccc3n2)C1` (centres unmarked) [Compound 166]: the half-maximal activity concentration (AC50) in series [1] (RT-qPCR) and in series [2] (RT-qPCR) was greater than 10 µM throughout. Also, the IC50 in series [1] (setting [8]), in series [1] (setting [9]), in series [2] (setting [10]), in series [2] (setting [11]), in series [3] and in series [4] was greater than 10 µM throughout. In addition, the figures for the concentration for half-maximal inhibition (IC50) in series [5] and in series [6] were greater than 10 µM and 1 to 10 µM, respectively. Further, in series [7], the “Effect of Exemplary Compounds on Cell Viability, K562” value (shortened to “Effect of Exemplary Compounds”) is reported as “B (B represents 100-1000 nM)”.

For `Cn1cnc2cc(-c3ccc4nc(N5CCC(NC(C)(C)C)C5)ccc4n3)c(O)cc2c1=O` (centres unmarked) [Compound 167], the half-maximal activity concentration (AC50) in series [1] (RT-qPCR) and in series [2] (RT-qPCR) was greater than 10 µM each time. Also, the IC50 in series [1] (setting [8]), in series [1] (setting [9]), in series [2] (setting [10]), in series [2] (setting [11]), in series [3] and in series [4] was greater than 10 µM each time. Also, the IC50 in series [5] and in series [6] was greater than 10 µM each time. For the same compound, in series [7], the “Effect of Exemplary Compounds” value is “B (B represents 100-1000 nM)”.

For the compound `COc1cc2c(=O)n(C)cnc2cc1-c1ccc2nc(N3CCC(NC(C)(C)C)C3)ccc2n1` (centres unmarked) [Compound 168], the AC50 in series [1] (RT-qPCR) and in series [2] (RT-qPCR) was greater than 10 µM throughout. The IC50 in series [1] (setting [8]), in series [1] (setting [9]), in series [2] (setting [10]), in series [2] (setting [11]), in series [3] and in series [4] was greater than 10 µM in each case. The concentration for half-maximal inhibition (IC50) in series [5] and in series [6] was greater than 10 µM throughout. The “Effect of Exemplary Compounds” value in series [7] is on record as “D (D represents greater than 10 μM in K562 cells)”.

As for `CN1CCC2(CC1)CCN2c1ccc2nc(-c3cc4cn(C)nc4cc3O)ccc2n1` [Compound 169], the AC50 in series [1] (RT-qPCR) and in series [2] (RT-qPCR) was greater than 10 µM each time. Moreover, the IC50 in series [1] (setting [8]) is greater than 10 µM; in series [1] (setting [9]) it was greater than 10 µM; in series [2] (setting [10]) it was greater than 10 µM; in series [2] (setting [11]) it was greater than 10 µM; in series [3] it was 1 to 10 µM; in series [4], 1 to 10 µM. Also, the IC50 in series [5] is 1 to 10 µM; in series [6], greater than 10 µM. For the same compound, the “Effect of Exemplary Compounds” value in series [7] is recorded as “B (B represents 100-1000 nM)”.

As for `CN[C@H]1CCN(c2ccc3nc(-c4cc5cn(C)nc5cc4O)ccc3n2)C1` [Compound 170], the AC50 in series [1] (RT-qPCR) and in series [2] (RT-qPCR) was 0.1 to 1 µM in each case. The IC50 in series [1] (setting [8]) was less than 0.1 µM; in series [1] (setting [9]), less than 0.1 µM; in series [2] (setting [10]) it was 0.1 to 1 µM; in series [2] (setting [11]), 0.1 to 1 µM; in series [3] it was less than 0.1 µM; in series [4], 0.1 to 1 µM. Further, the results for the IC50 in series [5] and in series [6] were less than 0.1 µM and 0.1 to 1 µM, respectively. For the same compound, the “Effect of Exemplary Compounds” value in series [7] is listed as “B (B represents 100-1000 nM)”.

On to `CN[C@@H]1CCN(c2ccc3nc(-c4cc5cn(C)nc5cc4O)ccc3n2)C1` [Compound 172], for which the AC50 in series [1] (RT-qPCR) is 0.1 to 1 µM; in series [2] (RT-qPCR), less than 0.1 µM. The IC50 in series [1] (setting [8]), in series [1] (setting [9]), in series [2] (setting [10]), in series [2] (setting [11]), in series [3] and in series [4] was less than 0.1 µM throughout. The IC50 is less than 0.1 µM in series [5] and 0.1 to 1 µM in series [6]. Moreover, in series [7], the “Effect of Exemplary Compounds” value is given as “B (B represents 100-1000 nM)”.

Regarding `CC(C)N[C@@H]1CCN(c2ccc3nc(-c4cc5cn(C)nc5cc4O)ccc3n2)C1` [Compound 173], the half-maximal activity concentration (AC50) in series [1] (RT-qPCR) and in series [2] (RT-qPCR) was less than 0.1 µM each time. The IC50 in series [1] (setting [8]), in series [1] (setting [9]), in series [2] (setting [10]), in series [2] (setting [11]), in series [3] and in series [4] was less than 0.1 µM each time. In addition, the IC50 in series [5] and in series [6] was less than 0.1 µM in each case. Besides, the “Effect of Exemplary Compounds” value in series [7] is recorded as “A (A represents <100 nM)”.
